In assay [1] the test system is JAK1/TYK2 pSTAT5 (Tyr694/699) in THP-1 cell line. Description: IFNa-stimulated JAK1/TYK2 pSTAT5 (Tyr694/699) inhibition cellular assay, AlphaLISA. In kind it is cell-based. As to conditions: Homo sapiens; THP-1 cells, IFNa-stimulated, AlphaLISA (Assay B); read-out: Cellular THP1_IFNa-pSTATS_IC50. An outline of the steps:
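THP-1, 2e4 cells/well, HBSS; cpd 1 h 37 °C (10000–0.04 nM final, 6-fold, 8 pt); IFNa 100 ng/mL added, 30 min; lyse, freeze −80 °C; pSTAT5 AlphaLISA, 615 nm; 4PL IC50, bottom fixed 0, slope −1.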
(Bead proximity is the source of the signal in Alpha formats.)

The next assay addresses T1, TYK2 JH2 (Homo sapiens, UniProt P29597).
T1 construct: purchased DiscoverX (KINOMEscan KdELECT service); host or cells: E. coli BL21-derived (T7 phage display) or HEK-293
The experiment in a line: TYK2 JH2 binding assay (KINOMEscan KdELECT competitive binding). As to conditions: TYK2 JH2 domain, KINOMEscan KdELECT (Assay A); read-out: Biochemical TYK2_JH2_Kd. The essentials: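 Competition binding, KdELECT format. Kinase (phage-tagged, E. coli BL21-derived host; or HEK-293, DNA-tagged) + ligand-coated streptavidin beads + cpd, 1 h RT, final DMSO 0.9%. Wash, elute 30 min with 0.5 μM non-biotinylated ligand; qPCR readout. Kd: 11-pt, 3-fold series.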

T1 sequence (P29597 589-875 limits assumed): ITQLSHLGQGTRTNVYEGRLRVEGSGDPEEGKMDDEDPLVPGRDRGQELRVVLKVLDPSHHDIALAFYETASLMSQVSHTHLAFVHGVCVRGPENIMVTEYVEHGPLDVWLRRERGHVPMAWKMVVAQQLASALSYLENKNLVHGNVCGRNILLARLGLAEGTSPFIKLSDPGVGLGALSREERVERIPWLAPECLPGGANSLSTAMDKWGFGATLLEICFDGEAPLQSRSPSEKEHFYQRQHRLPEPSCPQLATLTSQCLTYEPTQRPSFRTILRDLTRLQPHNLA

For the molecule `CNC(=O)c1cnc(NC)c2cnc(NC(=O)C3CC3)cc12` [Example 124, 6-(cyclopropanecarboxamido)-N-methyl-1-(methylamino)-2,7-naphthyridine-4-carboxamide], the IC50 in assay [1] is > 500 nM. For the same molecule, the Kd at TYK2 JH2 is ≤ 100 nM.
For `C#Cc1cnc(NC)c2cnc(NC(=O)C3CC3)cc12` [Example 125, N-(5-ethynyl-8-(methylamino)-2,7-naphthyridin-3-yl)cyclopropanecarboxamide], in that order: > 500 nM and ≤ 100 nM.
In the same order, the values of `CNc1ncc(-c2cc(Br)no2)c2cc(NC(=O)C3CC3)ncc12` [Example 126, N-(5-(3-bromoisoxazol-5-yl)-8-(methylamino)-2,7-naphthyridin-3-yl)cyclopropanecarboxamide] are > 500 nM and ≤ 100 nM.
For `CNc1ncc(C#CC(=O)C2CC2)c2cc(NC(=O)C3CC3)ncc12` [Example 127, N-(5-(3-cyclopropyl-3-oxoprop-1-yn-1-yl)-8-(methylamino)-2,7-naphthyridin-3-yl)cyclopropanecarboxamide], in that order: > 500 nM and ≤ 100 nM.
Consider `CCC(=O)c1cnc(NC)c2cnc(NC(=O)C3CC3)cc12` [Example 128, N-((methylamino)-5-propionyl-2,7-naphthyridin-3-yl)cyclopropanecarboxamide], for which the IC50 in assay [1] was > 500 nM. In addition, the Kd on TYK2 JH2 was ≤ 100 nM.
For `C/C=C/c1cnc(NC)c2cnc(NC(=O)C3CC3)cc12` [Example 129, (E)-N-(8-(methylamino)-5-(prop-1-en-1-yl)-2,7-naphthyridin-3-yl)cyclopropanecarboxamide], in assay [1], the IC50 is > 500 nM. Besides, the Kd at TYK2 JH2 is ≤ 100 nM.
In the same order, the values of `CNc1ncc(-c2cnc(C)o2)c2cc(NC(=O)C3CC3)ncc12` [Example 130, N-(8-(methylamino)-5-(2-methyloxazol-5-yl)-2,7-naphthyridin-3-yl)cyclopropanecarboxamide] are > 500 nM and ≤ 100 nM.
Turning to `CNc1ncc(-c2ccn(Cc3ccccc3)n2)c2cc(NC(=O)C3CC3)ncc12` [Example 131, N-(5-(1-benzyl-1H-pyrazol-3-yl)-8-(methylamino)-2,7-naphthyridin-3-yl)cyclopropanecarboxamide], the IC50 in assay [1] was > 500 nM. Besides, the Kd on TYK2 JH2 was ≤ 100 nM.
For `CNc1ncc(-c2ccc(OC3CCN(C)CC3)cc2)c2cc(NC(=O)C3CC3)ncc12` [Example 132, N-(8-(methylamino)-5-(4-((1-methylpiperidin-4-yl)oxy)phenyl)-2,7-naphthyridin-3-yl)cyclopropanecarboxamide], in that order: > 500 nM and ≤ 100 nM.
Turning to `CNc1ncc(-c2ncc(C)o2)c2cc(NC(=O)C3CC3)ncc12` [Example 133, N-(8-(methylamino)-5-(5-methyloxazol-2-yl)-2,7-naphthyridin-3-yl)cyclopropanecarboxamide], the IC50 in assay [1] was > 500 nM. For the same molecule, the Kd on TYK2 JH2 is ≤ 100 nM.
In the same order, the values of `CNc1ncc(Nc2ccccc2)c2cc(NC(=O)C3CC3)ncc12` [Example 134, N-(8-(methylamino)-5-(phenylamino)-2,7-naphthyridin-3-yl)cyclopropanecarboxamide] are > 500 nM and 100 to 1000 nM.
For `CNc1ncc(/C=C/c2ccc(OC)cc2)c2cc(NC(=O)C3CC3)ncc12` [Example 135, (E)-N-(5-(4-methoxystyryl)-8-(methylamino)-2,7-naphthyridin-3-yl)cyclopropanecarboxamide], in that order: ≤ 500 nM and ≤ 100 nM.
On to `C=C(c1ccc(OC)cc1)c1cnc(NC)c2cnc(NC(=O)C3CC3)cc12` [Example 136], for which, in assay [1], the IC50 is > 500 nM. The Kd on TYK2 JH2 fell in the range of 100 to 1000 nM.
In the same order, the values of `CNc1ncc(C#Cc2ccccc2)c2cc(NC(=O)C3CC3)ncc12` [Example 137, N-(8-(methylamino)-5-(phenylethynyl)-2,7-naphthyridin-3-yl)cyclopropanecarboxamide] are ≤ 500 nM and ≤ 100 nM.

Source of the values: patent US20240025906A1 (NEURON23, INC., priority 2022, published 2024).
